{
  "source": "ChEMBL document CHEMBL2021805",
  "about": "“Structural polymorphism of human telomere G-quadruplex induced by a pyridyl carboxamide molecule” (Bioorg Med Chem Lett, 2012)",
  "assay_type_in_all_cases": "nucleic-acid assay",
  "key": {"Nucleic Acid [1]": {"tested_on": "Nucleic Acid", "test": "Stabilization of human hybrid-type G-quadruplex G4A in 100 mM Na+ solution at room temperature assessed as formation of anti-parallel structure at 60 uM by CD spectroscopy"}, "Nucleic Acid [2]": {"tested_on": "Nucleic Acid", "test": "Stabilization of human hybrid-type G-quadruplex G4A in 100 mM K+ solution at room temperature assessed as formation of anti-parallel structure at 60 uM by CD spectroscopy"}, "Nucleic Acid [3]": {"tested_on": "Nucleic Acid", "test": "Stabilization of human G-quadruplex G4A in 100 mM K+ solution assessed as formation of stable parallel structure at 60 uM after heating at 95 degC and cooling to room temperature by CD spectroscopy"}, "Nucleic Acid [4]": {"tested_on": "Nucleic Acid", "test": "Binding affinity to human G-quadruplex FAM-21G at 10 uM after 2 to 24 hrs by native PAGE analysis"}, "Nucleic Acid [5]": {"tested_on": "Nucleic Acid", "test": "Binding affinity to human G-quadruplex Ap-12 substituted 21G at 5 uM up to 1 hr by fluorescence analysis"}, "Nucleic Acid [6]": {"tested_on": "Nucleic Acid", "test": "Stabilization of human G-quadruplex G4A in 100 mM K+ solution assessed as formation of stable parallel structure at 60 uM after 1 day at 37 degC by CD spectroscopy"}, "Nucleic Acid [7]": {"tested_on": "Nucleic Acid", "test": "Stabilization of human G-quadruplex G4A in 100 mM K+ solution assessed as time required to the formation of stable parallel structure at 60 uM at 37 degC by CD spectroscopy"}, "Nucleic Acid [8]": {"tested_on": "Nucleic Acid", "test": "Binding affinity to human G-quadruplex Ap-12 substituted 21G assessed as fluorescence quenching using ascorbic acid at 5 uM up to 1 hr by fluorescence analysis"}, "Nucleic Acid [9]": {"tested_on": "Nucleic Acid", "test": "Stabilization of human G-quadruplex G4A in 100 mM K+ solution assessed as time required to the formation of stable snti-parallel quadruplex structure at 60 uM at 37 degC by CD spectroscopy"}, "Nucleic Acid [10]": {"tested_on": "Nucleic Acid", "test": "Binding affinity to human G-quadruplex Ap-6 substituted 21G at 5 uM up to 1 hr by fluorescence analysis"}, "Nucleic Acid [11]": {"tested_on": "Nucleic Acid", "test": "Binding affinity to human G-quadruplex Ap-18 substituted 21G at 5 uM up to 1 hr by fluorescence analysis"}, "Nucleic Acid [12]": {"tested_on": "Nucleic Acid", "test": "Stabilization of human G-quadruplex G4A in 100 mM K+ solution assessed as formation of stable parallel structure measuring transformation rate constant at 60 uM after 1 day at 37 degC by CD spectroscopy"}, "Nucleic Acid [13]": {"tested_on": "Nucleic Acid", "test": "Binding affinity to human G-quadruplex Ap-18 substituted 21G assessed as fluorescence quenching using ascorbic acid at 5 uM up to 1 hr by fluorescence analysis"}, "Nucleic Acid [14]": {"tested_on": "Nucleic Acid", "test": "Binding affinity to human G-quadruplex FAM-21G at 20 uM by native PAGE analysis"}, "Nucleic Acid [15]": {"tested_on": "Nucleic Acid", "test": "Binding affinity to human G-quadruplex Ap-6 substituted 21G assessed as fluorescence quenching using ascorbic acid at 5 uM up to 1 hr by fluorescence analysis"}},
  "note": "Activity calls are given as the source filed them. The rule behind the calls is not given here.",
  "data": [
    {"compound": "C[N+]1(CC(=O)Nc2cccc(NC(=O)c3cccc(C(=O)Nc4cccc(NC(=O)C[N+]5(C)CCCCC5)n4)n3)n2)CCCCC1", "values": [
      {"measurement": "Activity", "setting": "Nucleic Acid [1]", "result": "inactive"},
      {"measurement": "Activity", "setting": "Nucleic Acid [2]", "result": "Active"},
      {"measurement": "Activity", "setting": "Nucleic Acid [3]", "result": "Active"},
      {"measurement": "Activity", "setting": "Nucleic Acid [4]", "result": "Active"},
      {"measurement": "Activity", "setting": "Nucleic Acid [5]", "result": "Active"},
      {"measurement": "Activity", "setting": "Nucleic Acid [6]", "result": 99, "unit": "%"},
      {"measurement": "TIME", "setting": "Nucleic Acid [7]", "result": 20, "unit": "h"},
      {"measurement": "Activity", "setting": "Nucleic Acid [8]", "result": "Active"},
      {"measurement": "TIME", "setting": "Nucleic Acid [9]", "result": 3, "unit": "h"},
      {"measurement": "Activity", "setting": "Nucleic Acid [10]", "result": "Active"},
      {"measurement": "Activity", "setting": "Nucleic Acid [11]", "result": "Active"},
      {"measurement": "Activity", "setting": "Nucleic Acid [12]", "result": 6.2, "unit": "×10⁻⁵ /s"},
      {"measurement": "Activity", "setting": "Nucleic Acid [13]", "result": "Active"},
      {"measurement": "Activity", "setting": "Nucleic Acid [14]", "result": "Active"},
      {"measurement": "Activity", "setting": "Nucleic Acid [15]", "result": "Active"}
    ]}
  ]
}
